Data reported in PMC9788418, “Design, Synthesis and Biological Evaluation of Syn and Anti-like Double Warhead Quinolinones Bearing Dihydroxy Naphthalene Moiety as Epidermal Growth Factor Receptor Inhibitors with Potential Apoptotic Antiproliferative Action” (Molecules, 2022).

Legend:
Assay type in all cases: cell-based, human
[1] = test system: HT-29 (colon cancer cell line); test: Antiproliferative assay; conditions: Homo sapiens, read-out: Antiproliferative Activity IC50 ± SEM, HT-29
Description: (§1) 4.2.1.2. Assay for antiproliferative effect
(§2) To explore the antiproliferative potential of compounds MTT assay was performed according to previously reported procedure using different cell lines to explore the antiproliferative potential of compounds propidium iodide fluorescence assay was performed using different cell lines. To calculate the total nuclear DNA, a fluorescent dye (propidium iodide, PI) is used which can attach to the DNA, thus offering a quick and precise technique. PI cannot pass through the cell membrane and its signal intensity can be considered as directly proportional to quantity of cellular DNA. Cells whose cell membranes are damaged or have changed permeability are counted as dead ones. The assay was performed by seeding the cells of different cell lines at a density of 3000-7500 cells/well (in 200µl […]
(§3) atmospheric conditions. The medium was removed; the compounds were added to the plates at 10 µM concentrations (in 0.1% DMSO) in triplicates, followed by incubation for 48 h. DMSO (0.1%) was used as control. After incubation, medium was removed followed by the addition of PI (25 µl, 50µg/mL in water/medium) to each well of the plates. At -80 °C, the plates were allowed to freeze for 24 h, followed by thawing at 25 °C. A fluorometer (Polar-Star BMG Tech) was used to record the readings at excitation and emission wavelengths of 530 and 620 nm for each well. The percentage cytotoxicity of compounds was calculated using the following formula:
(§4) Where ATC= Absorbance of treated cells and AC= Absorbance of control. […]
(§5) positive control in the assay.

[2] = test system: A-549 (epithelial cancer cell line); test: Antiproliferative assay; conditions: Homo sapiens, A549; read-out: Antiproliferative Activity IC50 ± SEM, A-549
Description: as §1, §2, §3, §4, §5

[3] = test system: MCF-7 (breast cancer cell line); test: Antiproliferative assay; conditions: Homo sapiens, MCF7; read-out: Antiproliferative Activity IC50 ± SEM, MCF-7
Description: as §1, §2, §3, §4, §5

[4] = Cell viability assay (MTT) on normal cell line; conditions: human, MCF-10A mammary gland epithelial cells, four days
Description: A cell viability test was performed using MCF-10A (human mammary gland epithelial) cell line to investigate the effect of 4a–e and 7a–e on normal cell lines. In this investigation, a concentration of 50 µM of the studied compound is employed for four days, after which cell viability is assessed.
4.2. Biological evaluation
4.2.1. Cytotoxic activity using MTT Assay and evaluation of IC50
MTT assay was carried out to study the effect of compounds on mammary epithelial cells (MCF-10A). The medium in which cells were propagated contained Dulbecco's modified Eagle's medium (DMEM)/ Ham's F-12 medium (1:1) supplemented with epidermal growth factor (20 ng/mL), hydrocortisone (500 ng/mL), insulin (10 μg/mL), 2 mM glutamine and 10% foetal calf serum. After every 2-3 days, the cells were passaged using trypsin ethylenediamine tetra acetic acid (EDTA). The cells were seeded at a density of 10^4 cells mL-1 in flat-bottomed culture plates containing 96 wells each. After 24 h, medium was removed from the plates and the compounds in (in 0.1% DMSO) were added (in 200 μL medium to yield a final concentration of 0.1% v/v) to the wells of plates. A single compound was designated with four wells followed by incubation of plates for 96h at 37°C. After incubation, medium was removed completely from the plates followed by addition of MTT (0.4 mg/mL in medium) to each well and subsequent incubation of plates for 3h. MTT (along with the medium) was removed and DMSO (150μL) was added to each well of the culture plates, followed by vortexing and subsequent measurement of absorbance (at 540 nm) using microplate reader. […]

[5] = test system: four tested cancer cell lines (A-549, MCF-7, Panc-1, HT-29); test: Antiproliferative assay, average over the four cell lines; conditions: for GI50: Homo sapiens, mean of the four cancer cell lines
Description: The newly synthesized compounds were tested for antiproliferative activity against four different types of cancer cells: A-549 (epithelial cancer cell line), MCF-7 (breast cancer cell line), Panc-1 (pancreas cancer cell line), and HT-29 (colon cancer cell line).
After 24 h, medium was removed from the plates and the compounds in (in 0.1% DMSO) were added (in 200 μL medium to yield a final concentration of 0.1% v/v) to the wells of plates. A single compound was designated with four wells followed by incubation of plates for 96h at 37°C. After incubation, medium was removed completely from the plates followed by addition of MTT (0.4 mg/mL in medium) to each well and subsequent incubation of plates for 3h. MTT (along with the medium) was removed and DMSO (150μL) was added to each well of the culture plates, followed by vortexing and subsequent measurement of absorbance (at 540 nm) using microplate reader. The data are shown as percentage inhibition of proliferation in comparison with controls containing 0.1% 4.2.1.2. Assay for antiproliferative effect
To explore the antiproliferative potential of compounds MTT assay was performed according to previously reported procedure using different cell lines to explore the antiproliferative potential of compounds propidium iodide fluorescence assay was performed using different cell lines. To calculate the total nuclear DNA, a fluorescent dye (propidium iodide, PI) is used which can attach to the DNA, thus offering a quick and precise technique. PI cannot pass through the cell membrane and its signal intensity can be considered as directly proportional to quantity of cellular DNA. Cells whose cell membranes are damaged or have changed permeability are counted as dead ones. The assay was performed by seeding the cells of different cell lines at a density of 3000-7500 cells/well (in 200µl medium) in culture plates followed by incubation for 24h at 37 °C in humidified 5% CO2/95% air atmospheric conditions. The medium was removed; the compounds were added to the plates at 10 µM concentrations (in 0.1% DMSO) in triplicates, followed by incubation for 48 h. DMSO (0.1%) was used as control. After incubation, medium was removed followed by the addition of PI (25 µl, 50µg/mL in water/medium) to each well of the plates. At -80 °C, the plates were allowed to freeze for 24 h, followed by thawing at 25 °C. A fluorometer (Polar-Star BMG Tech) was used to record the readings at excitation and emission wavelengths of 530 and 620 nm for each well. The percentage cytotoxicity of compounds was calculated using the following formula:
Where ATC= Absorbance of treated cells and AC= Absorbance of control. Erlotinib was used as positive control in the assay.

Structure (SMILES) | IC50 [1] | IC50 [2] | IC50 [3] | viability at 96 h, 50 µM [4] | GI50 [5] | fold more potent than 4c (GI50) ([5]; relative to 4c) | fold less potent than erlotinib (GI50) ([5]; relative to erlotinib)
Cc1ccc2[nH]c(=O)cc(-n3cc(COc4cccc5cccc(OCc6cn(-c7cc(=O)[nH]c8ccc(C)cc78)nn6)c45)nn3)c2c1 [Compound 4b, 4,4′-(((naphthalene-1,8-diylbis(oxy))bis(methylene))bis(1H-1,2,3-triazole-4,1-diyl))-bis(6-methylquinolin-2(1H)-one)] | 48 ± 4 nM | 41 ± 4 nM | 43 ± 4 nM | 89% | 45 nM | 1.8 fold | 1.4 fold
O=c1cc(-n2cc(COc3cccc4cccc(OCc5cn(-c6cc(=O)[nH]c7ccccc67)nn5)c34)nn2)c2ccccc2[nH]1 [Compound 4a, 4,4′-(((naphthalene-1,8-diylbis(oxy))bis(methylene))bis(1H-1,2,3-triazole-4,1-diyl))-bis-(quinolin-2(1H)-one)] | 36 ± 3 nM | 31 ± 3 nM | 33 ± 3 nM | 91% | 34 nM | – | –
